# Values quoted from earlier work as cited in patent US6413717B1, “Methods for indentifying anti-cancer agents” (Corixa Corporation, priority 1998, dated 2002).
# Tests used:
# mda-7 = conditions: IFN-β 2000 U and MEZ 10 ng/mL, agents known to modulate gene expression
# human melanoma cells = conditions: IFN-β 2000 U and MEZ 10 ng/mL
structure (smiles),measurement,setting,value
C=C(C)[C@@]12O[C@@]3(c4ccccc4)O[C@@H]1[C@@H]1[C@@H]4O[C@]4(CO)[C@@H](O)[C@]4(O)C(=O)C(C)=C[C@H]4[C@@]1(O3)[C@H](C)[C@H]2OC(=O)/C=C/C=C/c1ccccc1 [mezerein],mda-7 expression,mda-7,induce an increase
same,proliferative potential,human melanoma cells,irreversible loss of proliferative potential
same,terminal differentiation,human melanoma cells,induction of terminal differentiation
